Measurements from PubChem BioAssay (NCI).
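Grown in 96-well plates, cells were treated for 48 hours with each compound at five concentrations. Insufficient inhibition: endpoint recorded as highest concentration tested. GI50 is the concentration that inhibits growth by half. TGI: total growth inhibition.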

How the values were obtained:
Assay in all cases: NCI-60 cell line screen, 48 h
786-0 renal = tested on: 786-0 renal
A498 renal = tested on: A498 renal
BT-549 breast = tested on: BT-549 breast
CAKI-1 renal = tested on: CAKI-1 renal
CCRF-CEM leukemia = tested on: CCRF-CEM leukemia
COLO 205 colon = tested on: COLO 205 colon
DU-145 prostate = tested on: DU-145 prostate
EKVX NSCLC = tested on: EKVX NSCLC
HCC-2998 colon = tested on: HCC-2998 colon
HCT-116 colon = tested on: HCT-116 colon
HCT-15 colon = tested on: HCT-15 colon
HL-60(TB) leukemia = tested on: HL-60(TB) leukemia
HOP-62 NSCLC = tested on: HOP-62 NSCLC
HOP-92 NSCLC = tested on: HOP-92 NSCLC
HS 578T breast = tested on: HS 578T breast
HT29 colon = tested on: HT29 colon
IGROV1 ovarian = tested on: IGROV1 ovarian
K-562 leukemia = tested on: K-562 leukemia
KM12 colon = tested on: KM12 colon
LOX IMVI melanoma = tested on: LOX IMVI melanoma
M14 melanoma = tested on: M14 melanoma
MALME-3M melanoma = tested on: MALME-3M melanoma
MCF7 breast = tested on: MCF7 breast
MDA-MB-231 breast = tested on: MDA-MB-231 breast
MDA-MB-435 = tested on: MDA-MB-435
MDA-MB-468 breast = tested on: MDA-MB-468 breast
MOLT-4 leukemia = tested on: MOLT-4 leukemia
NCI-H226 lung = tested on: NCI-H226 lung
NCI-H23 lung = tested on: NCI-H23 lung
NCI-H522 lung = tested on: NCI-H522 lung
OVCAR-3 ovarian = tested on: OVCAR-3 ovarian
OVCAR-4 ovarian = tested on: OVCAR-4 ovarian
OVCAR-5 ovarian = tested on: OVCAR-5 ovarian
OVCAR-8 ovarian = tested on: OVCAR-8 ovarian
PC-3 prostate = tested on: PC-3 prostate
RPMI-8226 leukemia = tested on: RPMI-8226 leukemia
RXF 393 renal = tested on: RXF 393 renal
SF-268 CNS = tested on: SF-268 CNS
SF-295 CNS = tested on: SF-295 CNS
SF-539 CNS = tested on: SF-539 CNS
SK-MEL-2 melanoma = tested on: SK-MEL-2 melanoma
SK-MEL-28 melanoma = tested on: SK-MEL-28 melanoma
SK-MEL-5 melanoma = tested on: SK-MEL-5 melanoma
SK-OV-3 ovarian = tested on: SK-OV-3 ovarian
SN12C renal = tested on: SN12C renal
SNB-19 CNS = tested on: SNB-19 CNS
SNB-75 CNS = tested on: SNB-75 CNS
SR leukemia = tested on: SR leukemia
T-47D breast = tested on: T-47D breast
TK-10 renal = tested on: TK-10 renal
U251 CNS = tested on: U251 CNS
UACC-257 melanoma = tested on: UACC-257 melanoma
UACC-62 melanoma = tested on: UACC-62 melanoma
UO-31 renal = tested on: UO-31 renal

In the case of `CN1CCN(C(=O)CCN(C(=O)Oc2cc3c(c4ccccc24)[C@H](CCl)CN3C(=O)c2cc3cc(OCCCN4CCC4)ccc3[nH]2)[C@H]2CCSSC2)CC1`, the GI50 (786-0 renal) is reported as 330 nM, the TGI (786-0 renal) is reported as 1140 nM and the GI50 (A498 renal) is reported as 199 nM. For the same compound, the TGI (A498 renal) was 386 nM, the GI50 (BT-549 breast) was 1020 nM and the TGI (BT-549 breast) was 2460 nM. It also gave a GI50 (CAKI-1 renal) of 150 nM, a TGI (CAKI-1 renal) of 509 nM and a GI50 (CCRF-CEM leukemia) of 269 nM. For the same compound, the TGI (CCRF-CEM leukemia) was 3510 nM, the GI50 (COLO 205 colon) was 431 nM and the TGI (COLO 205 colon) was 2260 nM. For the same compound, the GI50 (DU-145 prostate) was 165 nM, the TGI (DU-145 prostate) was 1250 nM and the GI50 (EKVX NSCLC) was 351 nM. The TGI (EKVX NSCLC) was 1550 nM, the GI50 (HCC-2998 colon) was 146 nM and the TGI (HCC-2998 colon) was 334 nM. For the same compound, the GI50 (HCT-116 colon) was 234 nM, the TGI (HCT-116 colon) was 1040 nM and the GI50 (HCT-15 colon) was 209 nM. For the same compound, the TGI (HCT-15 colon) was 1350 nM, the GI50 (HL-60(TB) leukemia) was 390 nM and the TGI (HL-60(TB) leukemia) was 2030 nM. It also gave a GI50 (HOP-62 NSCLC) of 146 nM, a TGI (HOP-62 NSCLC) of 678 nM and a GI50 (HOP-92 NSCLC) of 997 nM. For the same compound, the TGI (HOP-92 NSCLC) was 3640 nM, the GI50 (HS 578T breast) was 1230 nM and the TGI (HS 578T breast) was 3170 nM. It also gave a GI50 (HT29 colon) of 211 nM, a TGI (HT29 colon) of 963 nM and a GI50 (IGROV1 ovarian) of 545 nM. The TGI (IGROV1 ovarian) was 2450 nM, the GI50 (K-562 leukemia) was 225 nM and the TGI (K-562 leukemia) was 1590 nM. It also gave a GI50 (KM12 colon) of 308 nM, a TGI (KM12 colon) of 1510 nM and a GI50 (LOX IMVI melanoma) of 85.5 nM. For the same compound, the TGI (LOX IMVI melanoma) was 314 nM, the GI50 (M14 melanoma) was 195 nM and the TGI (M14 melanoma) was 653 nM. The GI50 (MALME-3M melanoma) was 232 nM, the TGI (MALME-3M melanoma) was 745 nM and the GI50 (MCF7 breast) was 49.5 nM. For the same compound, the TGI (MCF7 breast) was 1430 nM, the GI50 (MDA-MB-231 breast) was 402 nM and the TGI (MDA-MB-231 breast) was 1450 nM. It also gave a GI50 (MDA-MB-435) of 285 nM, a TGI (MDA-MB-435) of 1170 nM and a GI50 (MDA-MB-468 breast) of 148 nM. It also gave a TGI (MDA-MB-468 breast) of 442 nM, a GI50 (MOLT-4 leukemia) of 231 nM and a TGI (MOLT-4 leukemia) of 1580 nM. It also gave a GI50 (NCI-H226 lung) of 148 nM, a TGI (NCI-H226 lung) of 1160 nM and a GI50 (NCI-H23 lung) of 65.7 nM. The TGI (NCI-H23 lung) was 211 nM, the GI50 (NCI-H522 lung) was 254 nM and the TGI (NCI-H522 lung) was 1280 nM. It also gave a GI50 (OVCAR-3 ovarian) of 426 nM, a TGI (OVCAR-3 ovarian) of 1880 nM and a GI50 (OVCAR-4 ovarian) of 1360 nM. For the same compound, the TGI (OVCAR-4 ovarian) was 2780 nM, the GI50 (OVCAR-5 ovarian) was 390 nM and the TGI (OVCAR-5 ovarian) was 1390 nM. The GI50 (OVCAR-8 ovarian) was 136 nM, the TGI (OVCAR-8 ovarian) was 500 nM and the GI50 (PC-3 prostate) was 378 nM. It also gave a TGI (PC-3 prostate) of 2070 nM, a GI50 (RPMI-8226 leukemia) of 570 nM and a TGI (RPMI-8226 leukemia) of 3870 nM. For the same compound, the GI50 (RXF 393 renal) was 189 nM, the TGI (RXF 393 renal) was 454 nM and the GI50 (SF-268 CNS) was 281 nM. It also gave a TGI (SF-268 CNS) of 1630 nM, a GI50 (SF-295 CNS) of 107 nM and a TGI (SF-295 CNS) of 291 nM. It also gave a GI50 (SF-539 CNS) of 325 nM, a TGI (SF-539 CNS) of 1200 nM and a GI50 (SK-MEL-2 melanoma) of 345 nM. The TGI (SK-MEL-2 melanoma) was 1060 nM, the GI50 (SK-MEL-28 melanoma) was 208 nM and the TGI (SK-MEL-28 melanoma) was 502 nM. It also gave a GI50 (SK-MEL-5 melanoma) of 152 nM, a TGI (SK-MEL-5 melanoma) of 336 nM and a GI50 (SK-OV-3 ovarian) of 313 nM. For the same compound, the TGI (SK-OV-3 ovarian) was 7080 nM, the GI50 (SN12C renal) was 527 nM and the TGI (SN12C renal) was 9020 nM. The GI50 (SNB-19 CNS) was 272 nM, the TGI (SNB-19 CNS) was 1650 nM and the GI50 (SNB-75 CNS) was 497 nM. It also gave a TGI (SNB-75 CNS) of 2320 nM, a GI50 (SR leukemia) of 66.1 nM and a TGI (SR leukemia) of 906 nM. For the same compound, the GI50 (T-47D breast) was 570 nM, the TGI (T-47D breast) was 2400 nM and the GI50 (TK-10 renal) was 1560 nM. It also gave a TGI (TK-10 renal) of 3570 nM, a GI50 (U251 CNS) of 100 nM and a TGI (U251 CNS) of 377 nM. The GI50 (UACC-257 melanoma) was 378 nM, the TGI (UACC-257 melanoma) was 1810 nM and the GI50 (UACC-62 melanoma) was 115 nM. It also gave a TGI (UACC-62 melanoma) of 294 nM, a GI50 (UO-31 renal) of 190 nM and a TGI (UO-31 renal) of 480 nM.
